Data taken from ChEMBL document CHEMBL1629470, “Synthesis, biological evaluation and docking studies of 4-amino-tetrahydroquinazolino[3,2-e]purine derivatives” (Eur J Med Chem, 2010).

Experiments:
[1] = target: Proto-oncogene tyrosine-protein kinase Src (Homo sapiens) (UniProt P12931); assay: Inhibition of Src at 10 uM after 20 mins
[2] = tested on: L1210; assay: Cytotoxicity against mouse L1210 cells after 4 hrs by MTT assay; type: functional

Sequence of Proto-oncogene tyrosine-protein kinase Src (Homo sapiens) (P12931 2-536 limits assumed): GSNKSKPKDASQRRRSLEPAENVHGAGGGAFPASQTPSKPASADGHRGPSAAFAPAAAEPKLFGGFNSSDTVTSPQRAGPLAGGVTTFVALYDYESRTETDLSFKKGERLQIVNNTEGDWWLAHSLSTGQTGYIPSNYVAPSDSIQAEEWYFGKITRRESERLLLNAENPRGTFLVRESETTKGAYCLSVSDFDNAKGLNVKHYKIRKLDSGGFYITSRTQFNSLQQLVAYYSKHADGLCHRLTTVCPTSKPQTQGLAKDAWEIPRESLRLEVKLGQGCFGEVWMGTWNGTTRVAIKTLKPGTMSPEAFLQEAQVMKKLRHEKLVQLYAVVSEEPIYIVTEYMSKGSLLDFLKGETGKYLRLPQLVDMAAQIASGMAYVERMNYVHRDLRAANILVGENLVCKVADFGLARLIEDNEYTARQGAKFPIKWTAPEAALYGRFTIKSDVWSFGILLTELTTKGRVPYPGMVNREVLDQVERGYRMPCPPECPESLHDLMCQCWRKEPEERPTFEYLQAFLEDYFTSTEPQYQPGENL

| Structure (SMILES) | inhibition [1] [%] | Activity [2] [µM] |
| --- | --- | --- |
| Cl.c1ccc(Nc2ncnc3c2nc2n3Cc3ccccc3N2CCN2CCOCC2)cc1 | 15 | 16.1 |
| Cl.Clc1ccccc1Nc1ncnc2c1nc1n2Cc2ccccc2N1CCN1CCOCC1 | 20 | 11.9 |
| CCN(CC)CCN1c2ccccc2Cn2c1nc1c(Nc3ccccc3)ncnc12.Cl | 0 | 17.9 |
| Brc1ccccc1Nc1ncnc2c1nc1n2Cc2ccccc2N1CCN1CCOCC1.Cl | 30 | 21.9 |

Further lines, with some results ahead:

| inhibition [1] [%] | Structure (SMILES) | Activity [2] [µM] |
| --- | --- | --- |
| 49 | Nc1nc(Cl)nc2c1nc1n2Cc2ccccc2N1 | 23 |
| 58 | c1ccc(Nc2ncnc3c2nc2n3Cc3ccccc3N2)cc1 | 34.3 |
| 72 | Nc1ncnc2c1nc1n2Cc2ccccc2N1 | 7.3 |
| 9 | Cl.c1ccc(CNc2ncnc3c2nc2n3Cc3ccccc3N2CCN2CCOCC2)cc1 | 31 |
